Assay results published in patent publication US8362050B2, “Compounds and methods for modulating G protein-coupled receptors” (IRM LLC, priority 2008, dated 2013).
Like-named read-outs stand apart in the source and are kept apart here.

Biological target: T1, Human GPR120 (Homo sapiens, UniProt Q5NUL3)
T1 construct: Ga16 (promiscuous G protein) fusion partner; expressed in transfected cells
T1 sequence (Q5NUL3 with tags, fused parts or gaps): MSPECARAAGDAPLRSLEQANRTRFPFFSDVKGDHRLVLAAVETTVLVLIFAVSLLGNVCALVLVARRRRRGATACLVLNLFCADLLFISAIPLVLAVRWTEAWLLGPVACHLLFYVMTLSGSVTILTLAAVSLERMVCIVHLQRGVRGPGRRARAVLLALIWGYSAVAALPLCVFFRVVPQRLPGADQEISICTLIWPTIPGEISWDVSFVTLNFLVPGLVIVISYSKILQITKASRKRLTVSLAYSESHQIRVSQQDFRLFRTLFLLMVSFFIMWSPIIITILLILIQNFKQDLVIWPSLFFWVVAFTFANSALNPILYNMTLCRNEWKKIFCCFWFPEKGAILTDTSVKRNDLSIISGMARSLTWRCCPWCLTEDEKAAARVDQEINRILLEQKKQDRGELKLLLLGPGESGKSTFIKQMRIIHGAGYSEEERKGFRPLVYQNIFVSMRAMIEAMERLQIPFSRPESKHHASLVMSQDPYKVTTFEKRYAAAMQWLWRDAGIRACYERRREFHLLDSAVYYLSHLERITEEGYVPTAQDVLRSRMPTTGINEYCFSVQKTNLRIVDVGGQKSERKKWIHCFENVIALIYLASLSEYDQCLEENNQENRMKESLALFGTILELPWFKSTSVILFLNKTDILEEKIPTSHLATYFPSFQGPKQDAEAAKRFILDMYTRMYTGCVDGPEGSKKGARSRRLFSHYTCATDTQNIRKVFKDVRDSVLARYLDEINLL
Test: FLIPR assay: agonist-induced calcium mobilization in HEK293-GPR120-Ga16 cells
Type: cell-based
Conditions: for EC50: GPR120 activation, calcium mobilization, HEK293-GPR120-Ga16 cells; for Emax: % enhancement of the test compound relative to a known compound, read-out: % Efficiency
Description: Human GPR120 stable cell-line was generated in HEK293 cells. GPR120 (Accession number BC101175) is fused to a promiscuous G protein, Ga16. The expression plasmid is transfected into HEK293 cells using Fugene6 following manufacturer's instruction. Stable cell-lines are generated following drug selection.
FLIPR (Fluorimetric Imaging Plate Reader, Molecular Devices) assays are performed to measure agonist-induced calcium mobilization in the GPR120-expressing cells. One day before the FLIPR assay, HEK293-GPR120-Ga16 cells are seeded into poly-D-lysine coated black-wall-clear bottom 384 well plates (Falcon) at 25,000 cells per well in 40 μl DMEM supplemented with 1% of FBS. The cells are incubated overnight at 37° C. in a humidified incubator. The medium is aspirated on the day of the FLIPR assay. The cells are incubated with 50 μl/well of the assay buffer (HBSS, 20 mM HEPES, 2.5 mM probenecid, pH7.4) containing Fluo-4 NM dye (Invitrogen cat# F36205) at 37° C. for 45 minutes, and then equilibrated at room temperature for 30 minutes. Compounds are dissolved in DMSO and diluted to desired concentrations with assay buffer. Fluorescent output is measured immediately following compound addition (12.5 μl/well) on the FLIPR machine.
An EC50 value was calculated using the change of fluorescent intensity from the reaction initiation. […] In some examples, compounds provided herein have EC50 values from 0.1 μM to 5 μM, while in other examples from 0.5 μM to 5 μM.
The EC50 value in those experiments is given as that concentration of the test compound in question that provoke a response halfway between the baseline and maximum responses. In certain examples compounds of Formula (I) have EC50 values from 0.001 μM to 5 μM. In other examples, compounds of Formula (I) have EC50 values from 0.001 μM to 4 μM. In other examples, compounds of Formula (I) have EC50 values from 0.001 μM to 3 μM. In other examples, compounds of Formula (I) have EC50 values from 0.001 μM to 2 μM. In other examples, compounds of Formula (I) have EC50 values from 0.001 μM to 1 μM. In other examples, compounds of Formula (I) have EC50 values from 0.001 μM to 0.5 μM. […] In other examples, compounds of Formula (I) have EC50 values from 0.001 μM to 0.1 μM.
The % efficiency in those experiments is given as that % enhancement of the test compound in question relative to a known compound. In certain examples compounds of Formula (I) have a % efficiency values from 50% to 150%. In other examples, compounds of Formula (I) have a % efficiency values from 55% to 150%. In other examples, compounds of Formula (I) have a % efficiency values from 60% to 150%. In other examples, compounds of Formula (I) have a % efficiency values from 65% to 150%. In other examples, compounds of Formula (I) have a % efficiency values from 70% to 150%. In other examples, compounds of Formula (I) have a % efficiency values from 75% to 150%. In other examples, compounds of Formula (I) have a % efficiency values from 80% to 150%. In other examples, compounds of Formula (I) have a % efficiency values from 85% to 150%. In other examples, compounds of Formula (I) have a % efficiency values from 90% to 150%. In other examples, compounds of Formula (I) have a % efficiency values from 95% to 150%. In other examples, compounds of Formula (I) have a % efficiency values from 100% to 150%.

SMILES: CCn1c(-c2cccc(OCc3ccccc3)c2)cs/c1=N\c1ccc(C(=O)O)cc1 [Compound 26, (Z)-4-(4-(3-(benzyloxy)phenyl)-3-ethylthiazol-2(3H)-ylideneamino)benzoic acid]
- EC50 (read-out: EC50 Range): 0.5 to 1 µM

SMILES: CCn1c(-c2cccc(OCc3ccccn3)c2)cs/c1=N\c1ccc(C(=O)O)cc1 [Compound 27, (Z)-4-(3-ethyl-4-(3-(pyridin-2-ylmethoxy)phenyl)thiazol-2(3H)-ylideneamino)benzoic acid]
- Emax: 65.9%
- EC50 (read-out: EC50): 0.7 µM
- EC50 (read-out: EC50 Range): 0.5 to 1 µM

SMILES: CCn1c(-c2ccccc2OC)cs/c1=N\c1ccc(S(=O)(=O)O)cc1 [Compound 28, (Z)-4-(3-ethyl-4-(2-methoxyphenyl)thiazol-2(3H)-ylideneamino)benzenesulfonic acid]
- EC50 (read-out: EC50 Range): 0.1 to 0.25 µM

SMILES: CCn1c(-c2cccc(OC)c2)cs/c1=N\c1ccc(S(=O)(=O)O)cc1 [Compound 29, (Z)-4-(3-ethyl-4-(3-methoxyphenyl)thiazol-2(3H)-ylideneamino)benzenesulfonic acid]
- EC50 (read-out: EC50 Range): 0.25 to 0.5 µM

SMILES: CCn1c(-c2ccccc2Cl)cs/c1=N\c1ccc(S(=O)(=O)O)cc1 [Compound 30, (Z)-4-(4-(2-chlorophenyl)-3-ethylthiazol-2(3H)-ylideneamino)benzenesulfonic acid]
- EC50 (read-out: EC50 Range): 0.1 to 0.25 µM

SMILES: CCn1c(-c2cccc(Cl)c2)cs/c1=N\c1ccc(S(=O)(=O)O)cc1 [Compound 31, (Z)-4-(4-(3-chlorophenyl)-3-ethylthiazol-2(3H)-ylideneamino)benzenesulfonic acid]
- Emax: 114%
- EC50 (read-out: EC50): 0.078 µM
- EC50 (read-out: EC50 Range): 0.001 to 0.1 µM

SMILES: CCn1c(-c2ccccc2OC)cs/c1=N\c1ccc(C(=O)O)cc1 [Compound 32, (Z)-4-(3-ethyl-4-(2-methoxyphenyl)thiazol-2(3H)-ylideneamino)benzoic acid]
- EC50 (read-out: EC50 Range): 0.5 to 1 µM

SMILES: CCn1c(-c2cccc(OC)c2)cs/c1=N\c1ccc(C(=O)O)cc1 [Compound 33, (Z)-4-(3-ethyl-4-(3-methoxyphenyl)thiazol-2(3H)-ylideneamino)benzoic acid]
- EC50 (read-out: EC50 Range): 0.5 to 1 µM

SMILES: CCn1c(-c2ccccc2Cl)cs/c1=N\c1ccc(C(=O)O)cc1 [Compound 34, (Z)-4-(4-(2-chlorophenyl)-3-ethylthiazol-2(3H)-ylideneamino)benzoic acid]
- EC50 (read-out: EC50 Range): 0.1 to 0.25 µM

SMILES: CCn1c(-c2cccc(Cl)c2)cs/c1=N\c1ccc(C(=O)O)cc1 [Compound 35, (Z)-4-(4-(3-chlorophenyl)-3-ethylthiazol-2(3H)-ylideneamino)benzoic acid]
- EC50 (read-out: EC50 Range): 0.1 to 0.25 µM

SMILES: CCn1c(-c2ccccc2)cs/c1=N\c1ccc(C(=O)O)cc1 [Compound 36, (Z)-4-(3-ethyl-4-phenylthiazol-2(3H)-ylideneamino)benzoic acid]
- EC50 (read-out: EC50 Range): 0.25 to 0.5 µM

SMILES: CCn1c(-c2ccccc2)cs/c1=N\c1ccc(S(=O)(=O)O)cc1 [Compound 37, (Z)-4-(3-ethyl-4-phenylthiazol-2(3H)-ylideneamino)benzenesulfonic acid]
- EC50 (read-out: EC50 Range): 0.1 to 0.25 µM

SMILES: CCn1c(-c2c(Cl)cccc2Cl)cs/c1=N\c1ccc(C(=O)O)cc1 [Compound 38, (Z)-4-(4-(2,6-dichlorophenyl)-3-ethylthiazol-2(3H)-ylideneamino)benzoic acid]
- EC50 (read-out: EC50 Range): 0.1 to 0.25 µM

SMILES: CCn1c(-c2cccc(Cl)c2Cl)cs/c1=N\c1ccc(C(=O)O)cc1 [Compound 39, (Z)-4-(4-(2,3-dichlorophenyl)-3-ethylthiazol-2(3H)-ylideneamino)benzoic acid]
- EC50 (read-out: EC50 Range): 0.1 to 0.25 µM

SMILES: CCn1c(-c2cccc3ccccc23)cs/c1=N\c1ccc(C(=O)O)cc1 [Compound 40, (Z)-4-(3-ethyl-4-(naphthalen-1-yl)thiazol-2(3H)-ylideneamino)benzoic acid]
- Emax: 107%
- EC50 (read-out: EC50): 0.354 µM
- EC50 (read-out: EC50 Range): 0.25 to 0.5 µM

SMILES: CCn1c(-c2ccc3ccccc3c2)cs/c1=N\c1ccc(C(=O)O)cc1 [Compound 41, (Z)-4-(3-ethyl-4-(naphthalen-2-yl)thiazol-2(3H)-ylideneamino)benzoic acid]
- EC50 (read-out: EC50 Range): 0.25 to 0.5 µM

SMILES: CCn1c(-c2ccccc2Br)cs/c1=N\c1ccc(C(=O)O)cc1 [Compound 42, (Z)-4-(4-(2-bromophenyl)-3-ethylthiazol-2(3H)-ylideneamino)benzoic acid]
- EC50 (read-out: EC50 Range): 0.001 to 0.1 µM

SMILES: CCn1c(-c2ccccc2N)cs/c1=N\c1ccc(C(=O)O)cc1 [Compound 43, (Z)-4-(4-(2-aminophenyl)-3-ethylthiazol-2(3H)-ylideneamino)benzoic acid]
- EC50 (read-out: EC50 Range): 0.001 to 0.1 µM

SMILES: CCn1c(-c2ccccc2[N+](=O)[O-])cs/c1=N\c1ccc(C(=O)O)cc1 [Compound 44, (Z)-4-(3-ethyl-4-(2-nitrophenyl)thiazol-2(3H)-ylideneamino)benzoic acid]
- Emax: 75.2%
- EC50 (read-out: EC50): 0.604 µM
- EC50 (read-out: EC50 Range): 0.5 to 1 µM

SMILES: CCn1c(-c2ccccc2NC)cs/c1=N\c1ccc(C(=O)O)cc1 [Compound 45, (Z)-4-(3-ethyl-4-(2-(methylamino)phenyl)thiazol-2(3H)-ylideneamino)benzoic acid]
- Emax: 87.9%
- EC50 (read-out: EC50): 0.526 µM
- EC50 (read-out: EC50 Range): 0.5 to 1 µM

SMILES: CCn1c(-c2ccccc2N(C)C)cs/c1=N\c1ccc(C(=O)O)cc1 [Compound 46, (Z)-4-(4-(2-(dimethylamino)phenyl)-3-ethylthiazol-2(3H)-ylideneamino)benzoic acid]
- EC50 (read-out: EC50 Range): 0.5 to 1 µM

SMILES: CCn1c(-c2cccc(Br)c2)cs/c1=N\c1ccc(C(=O)O)cc1 [Compound 47, (Z)-4-(4-(3-bromophenyl)-3-ethylthiazol-2(3H)-ylideneamino)benzoic acid]
- EC50 (read-out: EC50 Range): 0.1 to 0.25 µM

SMILES: CCn1c(-c2ccccc2O)cs/c1=N\c1ccc(C(=O)O)cc1 [Compound 48, (Z)-4-(3-ethyl-4-(2-hydroxyphenyl)thiazol-2(3H)-ylideneamino)benzoic acid]
- EC50 (read-out: EC50 Range): 0.1 to 0.25 µM

SMILES: CCn1c(-c2cccc(C#N)c2)cs/c1=N\c1ccc(C(=O)O)cc1 [Compound 49, (Z)-4-(4-(3-cyanophenyl)-3-ethylthiazol-2(3H)-ylideneamino)benzoic acid]
- EC50 (read-out: EC50 Range): 0.25 to 0.5 µM

SMILES: CCn1c(-c2cc(Br)ccc2O)cs/c1=N\c1ccc(C(=O)O)cc1 [Compound 50, (Z)-4-(4-(5-bromo-2-hydroxyphenyl)-3-ethylthiazol-2(3H)-ylideneamino)benzoic acid]
- EC50 (read-out: EC50 Range): 0.1 to 0.25 µM

SMILES: COc1ccc(-c2noc(-c3cccc(C(=O)O)c3)n2)cc1 [Compound 51, 3-[3-(4-Methoxyphenyl)-1,2,4-oxadiazol-5-yl]benzoic acid]
- Emax: 55%
- EC50 (read-out: EC50): 0.184 µM
- EC50 (read-out: EC50 Range): 0.1 to 0.25 µM

SMILES: COc1ccc(-c2noc(-c3ccc(C(=O)O)cc3)n2)cc1 [Compound 52, 4-(3-(4-methoxyphenyl)-1,2,4-oxadiazol-5-yl)benzoic acid]
- EC50 (read-out: EC50 Range): 1 to 5 µM
